Assays:
canarygrass = assay: Test D preemergence; type: in vivo, Phalaris minor; conditions: for Plant response rating, Canarygrass: Preemergence, scale 0 to 100
In short: (§1)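 Preemergence: seeds sown in silt loam and sprayed with compounds in a non-phytotoxic solvent with surfactant; postemergence: plants at 2 to 18 cm (1- to 4-leaf stage) in peat-based medium treated likewise. After 14 to 21 days in controlled growth conditions, injury rated visually versus controls on 0 (no effect) to 100 (complete control) scale.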

bromegrass, downy = assay: Test D preemergence; type: in vivo, Bromus tectorum; conditions: for Plant response rating, Bromegrass, Downy: Preemergence, scale 0 to 100
In short: as §1

field poppy = assay: Test D preemergence; type: in vivo, Papaver rhoeas; conditions: for Plant response rating, Field Poppy: Preemergence, scale 0 to 100
In short: as §1

field violet = assay: Test D preemergence; type: in vivo, Viola arvensis; conditions: for Plant response rating, Field Violet: Preemergence, scale 0 to 100
In short: as §1

ryegrass, Italian [1] = assay: Test D preemergence; type: in vivo, Lolium multiflorum; conditions: for Plant response rating, Ryegrass, Italian: Preemergence, scale 0 to 100
In short: as §1

lambsquarters = assay: Test D preemergence; type: in vivo, Chenopodium album; conditions: for Plant response rating, Lambsquarters: Preemergence, scale 0 to 100
In short: as §1

pigweed = assay: Test D preemergence; type: in vivo, Amaranthus retroflexus; conditions: for Plant response rating, Pigweed: Preemergence, scale 0 to 100
In short: as §1

speedwell = assay: Test D preemergence; type: in vivo, Veronica persica; conditions: for Plant response rating, Speedwell: Preemergence, scale 0 to 100
In short: as §1

barley, spring = assay: Test D preemergence; type: in vivo, Hordeum vulgare; conditions: for Plant response rating, Barley, Spring: Preemergence, scale 0 to 100
In short: as §1

barley, winter = assay: Test D preemergence; type: in vivo, Hordeum vulgare; conditions: for Plant response rating, Barley, Winter: Preemergence, scale 0 to 100
In short: as §1

radish, wild = assay: Test D preemergence; type: in vivo, Raphanus raphanistrum; conditions: Preemergence, scale 0 to 100
In short: as §1

bluegrass = assay: Test D postemergence; type: in vivo, Poa annua; conditions: scale 0 to 100
In short: as §1

blackgrass = assay: Test D postemergence; type: in vivo, Alopecurus myosuroides; conditions: scale 0 to 100
In short: as §1

chickweed = assay: Test D postemergence; type: in vivo, Stellaria media; conditions: scale 0 to 100
In short: as §1

ryegrass, Italian [2] = assay: Test D postemergence; type: in vivo, Lolium multiflorum; conditions: scale 0 to 100
In short: as §1

kochia = assay: Test D postemergence; type: in vivo, Kochia scoparia; conditions: scale 0 to 100
In short: as §1

oilseed rape = assay: Test D postemergence; type: in vivo, Brassica napus; conditions: scale 0 to 100
In short: as §1

wheat, spring = assay: Test D postemergence; type: in vivo, Triticum aestivum; conditions: scale 0 to 100
In short: as §1

wheat, winter = assay: Test D postemergence; type: in vivo, Triticum aestivum; conditions: scale 0 to 100
In short: as §1

oat, wild = assay: Test D postemergence; type: in vivo, Avena fatua; conditions: scale 0 to 100
In short: as §1

[3] = 16 g ai/ha, taken as preemergence

CCc1cc(C(=O)NC2CC2)nn1Cc1ccnc(C(F)(F)F)c1 [Compound 76]
70: Plant response rating, Lambsquarters (lambsquarters; 31 g ai/ha) | Chickweed plant response rating (chickweed; Postemergence, 250 g ai/ha) | Oilseed Rape plant response rating (oilseed rape; Postemergence, 250 g ai/ha)
20: Bluegrass plant response rating (bluegrass; Postemergence, 125 g ai/ha) | Bluegrass plant response rating (bluegrass; Postemergence, 250 g ai/ha) | Oilseed Rape plant response rating (oilseed rape; postemergence, 62 g ai/ha) | Wheat, Winter plant response rating (wheat, winter; Postemergence, 250 g ai/ha)
50: Chickweed plant response rating (chickweed; Postemergence, 31 g ai/ha) | Kochia plant response rating (kochia; postemergence, 62 g ai/ha) | Oilseed Rape plant response rating (oilseed rape; Postemergence, 125 g ai/ha)
5: Plant response rating, Canarygrass (canarygrass; 31 g ai/ha) | Plant response rating, Bromegrass, Downy (bromegrass, downy; 125 g ai/ha) | Plant response rating, Bluegrass (bluegrass; Postemergence, 16 g ai/ha) | Bluegrass plant response rating (bluegrass; Postemergence, 31 g ai/ha) | Plant response rating, Blackgrass (blackgrass; Postemergence, 16 g ai/ha) | Blackgrass plant response rating (blackgrass; postemergence, 62 g ai/ha) | Ryegrass, Italian plant response rating (ryegrass, Italian [2]; Postemergence, 125 g ai/ha) | Ryegrass, Italian plant response rating (ryegrass, Italian [2]; postemergence, 62 g ai/ha) | Wheat, Spring plant response rating (wheat, spring; Postemergence, 31 g ai/ha) | Wheat, Spring plant response rating (wheat, spring; Postemergence, 125 g ai/ha) | Wheat, Spring plant response rating (wheat, spring; postemergence, 62 g ai/ha) | Plant response rating, Oat, Wild (oat, wild; Postemergence, 16 g ai/ha) | Oat, Wild plant response rating (oat, wild; Postemergence, 31 g ai/ha)
95: Plant response rating (scale 0 to 100), Field Poppy (field poppy; [3]) | Plant response rating, Field Violet (field violet; 31 g ai/ha) | Plant response rating, Ryegrass, Italian (ryegrass, Italian [1]; 250 g ai/ha) | Plant response rating, Lambsquarters (lambsquarters; 62 g ai/ha)
0: Plant response rating (scale 0 to 100), Canarygrass (canarygrass; [3]) | Plant response rating (scale 0 to 100), Bromegrass, Downy (bromegrass, downy; [3]) | Plant response rating, Bromegrass, Downy (bromegrass, downy; 31 g ai/ha) | Plant response rating, Bromegrass, Downy (bromegrass, downy; 62 g ai/ha) | Plant response rating (scale 0 to 100), Ryegrass, Italian (ryegrass, Italian [1]; [3]) | Plant response rating, Ryegrass, Italian (ryegrass, Italian [1]; 31 g ai/ha) | Plant response rating (scale 0 to 100), Barley, Spring (barley, spring; 16 g ai/ha, taken as preemergence, 0 = no effect, 100 = complete control) | Plant response rating, Barley, Spring (barley, spring; 31 g ai/ha) | Plant response rating (scale 0 to 100), Barley, Winter (barley, winter; [3]) | Plant response rating, Barley, Winter (barley, winter; 31 g ai/ha) | Blackgrass plant response rating (blackgrass; Postemergence, 31 g ai/ha) | Plant response rating, Ryegrass, Italian (ryegrass, Italian [2]; Postemergence, 16 g ai/ha) | Ryegrass, Italian plant response rating (ryegrass, Italian [2]; Postemergence, 31 g ai/ha) | Plant response rating, Wheat, Spring (wheat, spring; Postemergence, 16 g ai/ha) | Plant response rating, Wheat, Winter (wheat, winter; Postemergence, 16 g ai/ha) | Wheat, Winter plant response rating (wheat, winter; Postemergence, 31 g ai/ha)
80: Plant response rating, Pigweed (pigweed; 62 g ai/ha)
55: Chickweed plant response rating (chickweed; postemergence, 62 g ai/ha)
30: Plant response rating (scale 0 to 100), Lambsquarters (lambsquarters; [3])
25: Plant response rating, Kochia (kochia; Postemergence, 16 g ai/ha)
15: Plant response rating, Ryegrass, Italian (ryegrass, Italian [1]; 62 g ai/ha) | Plant response rating, Barley, Winter (barley, winter; 62 g ai/ha) | Oilseed Rape plant response rating (oilseed rape; Postemergence, 31 g ai/ha) | Wheat, Winter plant response rating (wheat, winter; Postemergence, 125 g ai/ha) | Oat, Wild plant response rating (oat, wild; Postemergence, 250 g ai/ha)
10: Plant response rating (scale 0 to 100), Pigweed (pigweed; [3]) | Plant response rating, Barley, Spring (barley, spring; 62 g ai/ha) | Bluegrass plant response rating (bluegrass; postemergence, 62 g ai/ha) | Blackgrass plant response rating (blackgrass; Postemergence, 125 g ai/ha) | Blackgrass plant response rating (blackgrass; Postemergence, 250 g ai/ha) | Ryegrass, Italian plant response rating (ryegrass, Italian [2]; Postemergence, 250 g ai/ha) | Plant response rating, Oilseed Rape (oilseed rape; Postemergence, 16 g ai/ha) | Wheat, Spring plant response rating (wheat, spring; Postemergence, 250 g ai/ha) | Wheat, Winter plant response rating (wheat, winter; postemergence, 62 g ai/ha) | Oat, Wild plant response rating (oat, wild; Postemergence, 125 g ai/ha) | Oat, Wild plant response rating (oat, wild; postemergence, 62 g ai/ha)
60: Plant response rating (scale 0 to 100), Field Violet (field violet; [3]) | Plant response rating, Pigweed (pigweed; 31 g ai/ha) | Plant response rating, Barley, Winter (barley, winter; 125 g ai/ha) | Chickweed plant response rating (chickweed; Postemergence, 125 g ai/ha) | Kochia plant response rating (kochia; Postemergence, 125 g ai/ha)
100: Plant response rating, Canarygrass (canarygrass; 125 g ai/ha) | Plant response rating, Canarygrass (canarygrass; 250 g ai/ha) | Plant response rating, Field Poppy (field poppy; 31 g ai/ha) | Plant response rating, Field Poppy (field poppy; 62 g ai/ha) | Plant response rating, Field Poppy (field poppy; 125 g ai/ha) | Plant response rating, Field Poppy (field poppy; 250 g ai/ha) | Plant response rating, Field Violet (field violet; 62 g ai/ha) | Plant response rating, Field Violet (field violet; 125 g ai/ha) | Plant response rating, Field Violet (field violet; 250 g ai/ha) | Plant response rating, Lambsquarters (lambsquarters; 125 g ai/ha) | Plant response rating, Lambsquarters (lambsquarters; 250 g ai/ha) | Plant response rating, Pigweed (pigweed; 125 g ai/ha) | Plant response rating, Pigweed (pigweed; 250 g ai/ha) | Plant response rating (scale 0 to 100), Speedwell (speedwell; [3]) | Plant response rating, Speedwell (speedwell; 31 g ai/ha) | Plant response rating, Speedwell (speedwell; 62 g ai/ha) | Plant response rating, Speedwell (speedwell; 125 g ai/ha) | Plant response rating, Speedwell (speedwell; 250 g ai/ha) | Plant response rating, Radish, Wild (radish, wild; 62 g ai/ha) | Plant response rating, Radish, Wild (radish, wild; 125 g ai/ha) | Plant response rating, Radish, Wild (radish, wild; 250 g ai/ha)
65: Plant response rating, Canarygrass (canarygrass; 62 g ai/ha) | Plant response rating, Bromegrass, Downy (bromegrass, downy; 250 g ai/ha) | Plant response rating, Ryegrass, Italian (ryegrass, Italian [1]; 125 g ai/ha) | Plant response rating, Barley, Spring (barley, spring; 125 g ai/ha)
35: Plant response rating, Chickweed (chickweed; Postemergence, 16 g ai/ha)
40: Kochia plant response rating (kochia; Postemergence, 31 g ai/ha)
75: Plant response rating, Barley, Spring (barley, spring; 250 g ai/ha) | Plant response rating, Barley, Winter (barley, winter; 250 g ai/ha) | Plant response rating, Radish, Wild (radish, wild; 31 g ai/ha) | Kochia plant response rating (kochia; Postemergence, 250 g ai/ha)
